Experimental data published in patent publication US11149033B2, “Heteroaryl compound, enantiomer, diastereomer or pharmaceutically acceptable salt thereof, and antiviral composition containing same as active ingredient” (priority 2016, dated 2021).
Where two headings read alike, the source gives them in different places.

What was measured:
MDCK cells = test: Cytotoxicity (CC50) in the influenza infection assay
B/Florida/04/2006 = test: Antiviral activity (drug efficacy evaluation by concentration) against B/Florida/04/2006; assay type: cell-based, B type influenza virus
A/Perth/16/2009 (H3N2) = test: Antiviral activity (drug efficacy evaluation by concentration) against A/Perth/16/2009 (H3N2); assay type: cell-based, A type influenza virus
[1] = test system: A/California/07/2009 (H1N1); test: Antiviral activity (drug efficacy evaluation by concentration) against A/California/07/2009 (H1N1); assay type: cell-based, A type influenza virus
[2] = read-out: CC50 A/California/07/2009 (H1N1), cytotoxicity in the A/California/07/2009 (H1N1) assay
[3] = read-out: CC50 A/Perth/16/2009 (H3N2), cytotoxicity in the A/Perth/16/2009 (H3N2) assay
[4] = read-out: CC50 B/Florida/04/2006, cytotoxicity in the B/Florida/04/2006 assay
[5] = read-out: EC50 B/Florida/04/2006, B/Florida/04/2006
[6] = A/Perth/16/2009 (H3N2), read-out: EC50 A/Perth/16/2009 (H3N2)
[7] = A/California/07/2009 (H1N1), read-out: EC50 A/California/07/2009 (H1N1)
[8] = CC50, third EC50/CC50 column pair (c7), beside the EC50 of c6
[9] = Influenza A virus, H3N2, read-out: EC50
[10] = Influenza A virus, H1N1, read-out: EC50

| SMILES | CC50 (MDCK cells; [2]) [µM] | CC50 (MDCK cells; [3]) [µM] | CC50 (MDCK cells; [4]) [µM] | EC50 (B/Florida/04/2006; [5]) [µM] | EC50 (A/Perth/16/2009 (H3N2); [6]) [µM] | EC50 [1, 7] [µM] | CC50 (in vitro; CC50, beside the EC50 of c2) [µM] | CC50 (in vitro; CC50, beside the EC50 of c4) [µM] | CC50 (in vitro; [8]) [µM] | melting point [°C] | EC50 (B/Florida/04/2006) [µM] | EC50 (A/Perth/16/2009 (H3N2); [9]) [µM] | EC50 [1, 10] [µM] |
| --- | --- | --- | --- | --- | --- | --- | --- | --- | --- | --- | --- | --- | --- |
| Cc1nn(Cc2nnc(SCc3ccccc3-c3ccncc3)o2)c(C)c1Br [Compound 15, 2-((4-bromo-3,5-dimethyl-1H-pyrazol-1-yl)methyl)-5-((2-(pyridin-4-yl)benzyl)thio)-1,3,4-oxadiazole] | > 50 | > 50 | > 50 | 8.18 | 11.6 | 8.9 | – | – | – | – | – | – | – |
| Cc1nn(Cc2nnc(SCc3ccccc3-c3ccncc3)o2)c(C)c1Br [Compound 20, 2-((4-bromo-3,5-dimethyl-1H-pyrazol-1-yl)methyl)-5-((2-(pyridin-4-yl)benzyl)thio)-1,3,4-oxadiazole] | 8.3 | 10.2 | 10.2 | 0.66 | 0.7 | 0.7 | – | – | – | – | – | – | – |
| Fc1ccc(/C=C/c2nnc(Cc3cccc(Br)c3)o2)cc1 [Compound 188, 2-(3-bromobenzyl)-5-(4-fluorostyryl)-1,3,4-oxadiazole] | – | – | – | – | – | – | > 50 | > 50 | > 50 | 95.3 | 12.2 | 11.6 | 9.58 |
| Fc1ccc(/C=C/c2nnc(Cc3cccc(Br)c3)o2)cc1F [Compound 191, 2-(3-bromobenzyl)-5-(3,4-difluorostyryl)-1,3,4-oxadiazole] | – | – | – | – | – | – | > 50 | > 50 | > 50 | 112.8 | 13.2 | 4.99 | 8.24 |
| Clc1ccc(/C=C/c2nnc(Cc3cccc(Br)c3)o2)c(Cl)c1 [Compound 192, 2-(3-bromobenzyl)-5-(2,4-dichlorostyryl)-1,3,4-oxadiazole] | – | – | – | – | – | – | > 50 | > 50 | > 50 | 142.4 | 5.49 | 2.6 | 4.66 |
| Fc1ccc(Cl)c(/C=C/c2nnc(Cc3cccc(Br)c3)o2)c1 [Compound 193, 2-(3-bromobenzyl)-5-(2-chloro-5-fluorostyryl)-1,3,4-oxadiazole] | – | – | – | – | – | – | > 50 | > 50 | > 50 | 97.1 | > 50 | > 50 | > 50 |
| Fc1cccc(/C=C/c2nnc(Cc3cccc(Br)c3)o2)c1Cl [Compound 194, 2-(3-bromobenzyl)-5-(2-chloro-3-fluorostyryl)-1,3,4-oxadiazole] | – | – | – | – | – | – | 49.9 | > 50 | > 50 | 140.2 | 1.53 | 1.43 | 1.31 |
| Brc1ccc(Cc2nnc(/C=C/c3cccc4ccccc34)o2)cc1 [Compound 197, 2-(4-bromobenzyl)-5-(2-(naphthalen-1-yl)vinyl)-1,3,4-oxadiazole] | – | – | – | – | – | – | > 50 | > 50 | > 50 | 116 | 44.1 | 46.1 | 26.9 |
| Cc1cc(C(F)(F)F)ccc1/C=C/c1nnc(Cc2cccc(Br)c2)o1 [Compound 198, 2-(3-bromobenzyl)-5-(2-methyl-4-(trifluoromethyl)styryl)-1,3,4-oxadiazole] | – | – | – | – | – | – | > 50 | > 50 | > 50 | 116 | 47.9 | > 50 | 35.7 |
| FC(F)(F)c1ccc(Cl)c(/C=C/c2nnc(Cc3cccc(Br)c3)o2)c1 [Compound 199, 2-(3-bromobenzyl)-5-(2-chloro-5-(trifluoromethyl)styryl)-1,3,4-oxadiazole] | – | – | – | – | – | – | > 50 | > 50 | > 50 | 106.9 | 9.89 | 6.3 | 8.55 |
| Cc1ccc(/C=C/c2nnc(Cc3cccc(Br)c3)o2)c(C)c1 [Compound 200, 2-(3-bromobenzyl)-5-(2,4-dimethylstyryl)-1,3,4-oxadiazole] | – | – | – | – | – | – | > 50 | > 50 | > 50 | 74.2 | 10.2 | 11.9 | 11.7 |
| Oc1cccc(Cc2nnc(/C=C/c3ccc(F)cc3Cl)o2)c1 [Compound 201, (E)-3-((5-(2-chloro-4-fluorostyryl)-1,3,4-oxadiazol-2-yl)methyl)phenol] | – | – | – | – | – | – | > 50 | > 50 | > 50 | 152.7 | 3.7 | 3.05 | 3.25 |
| Oc1ccccc1/C=C/c1nnc(Cc2ccc(Br)cc2)o1 [Compound 209, 2-(2-(5-(4-bromobenzyl)-1,3,4-oxadiazol-2-yl)vinyl)phenol] | – | – | – | – | – | – | > 50 | > 50 | > 50 | 168.3 | > 50 | 28.6 | 46.8 |
